According to patent publication US20020006933A1 (TAP Holdings, Inc., priority 2000, published 2002):

Tests used:
clinical = conditions: human, in vivo; for Cmax: Mean
humans = test: Clinical experience with sublingual apomorphine tablets in humans (efficacy, side effects)
[1] = humans, 2 to 4 mg sublingual tablets, clinical experience

- AUC(0-inf) (clinical; sc, 1 mg): 3.39 ng·h/mL
- Tmax (clinical; sc, 1 mg): 20.4 min
- Cmax (clinical; sc, 1 mg): 3.22 ng/mL
- AUC(0-inf) (clinical; male, 2 mg): 1.23 ng·h/mL
- Tmax (clinical; male, 2 mg): 44.4 min
- cmax, Mean (clinical; male, 2 mg): 0.70 ng/mL
- Cmax (clinical; male, 2 mg): ~0.7 ng/mL
- AUC(0-inf) (clinical; male, 4 mg): 2.37 ng·h/mL
- Tmax (clinical; male, 4 mg): 43.2 min
- cmax, Mean (clinical; male, 4 mg): 1.25 ng/mL
- Cmax (clinical; male, 4 mg): ~1.25 ng/mL
- AUC(0-inf) (clinical; male, 5 mg): 2.92 ng·h/mL
- Tmax (clinical; male, 5 mg): 40.8 min
- cmax, Mean (clinical; male, 5 mg): 1.70 ng/mL
- Cmax (clinical; male, 5 mg): ~1.7 ng/mL
- AUC(0-inf) (clinical; male, 6 mg): 3.6 ng·h/mL
- Tmax (clinical; male, 6 mg): 39.6 min
- cmax, Mean (clinical; male, 6 mg): 1.91 ng/mL
- Cmax (clinical; male, 6 mg): ~1.91 ng/mL
Compound: CN1CCc2cccc3c2[C@H]1Cc1ccc(O)c(O)c1-3 [Apomorphine, (R)-5,6,6a,7-tetrahydro-6-methyl-4H-dibenzo-[de,g]quinoline-10,11-diol]
- incidence of emesis (humans; [1]): 2%
- incidence of nausea (humans; [1]): about 13%
- tolerability in humans (humans; up to 8 mg of apomorphine tablets): well tolerated
- side-effects in humans (humans; up to a 6 mg dose via sublingual tablet): minimal side-effects
- efficacy in humans (humans; up to a 6 mg dose via sublingual tablet, sexual dysfunction): good efficacy
